Data: paper PMC6468747 (Cancers, 2019)

How the values were obtained:
Br-001 xenograft tumors = assay: Patient-derived TNBC xenograft (PDX), PO, racemate vs E1; format: in vivo, NSG mice; conditions: 20 mg/kg PO
Description: The second PDX tumor model experiment was conducted to assess the efficacy of VNLG-152R versus VNLG-152E1 following PO administration. When the tumor volumes had reached about 100 mm^3, the mice were randomly divided into three groups of five mice each. The control group received vehicle (PO) and the other two groups received VNLG-152R (20 mg/kg, PO, once daily), and VNLG-152E1 (20 mg/kg, PO, once daily) five days/week. These treatments continued for 15 days and the tumors were measured and processed as described above.

[1] = system: MDA-MB-231 tumor xenografts; assay: MDA-MB-231 cell-line derived xenograft (CDX), IP dose study; format: in vivo, athymic nude mice; conditions: for tumor growth inhibition (TGI): 5 days a week, 4 weeks
Description: Female athymic nude (Jackson Laboratory, Bar Harbor, Maine, USA) 5–6 weeks of age were housed under complete aseptic conditions, fed autoclaved pellets and sterile water ad libitum. Following a week of acclimatization, approximately 1 × 10^6 MDA-MB-231 cells were inoculated into both flanks for MDA-MB-231 derived xenograft tumors. Tumor-bearing mice (tumor volume around 90–110 mm^3) were randomized into various treatment groups (5 mice in each group; compounds formulated in vehicle) and treated as follows: (i) vehicle control (40% β-cyclodextrin in ddH2O, IP), (ii) VNLG-152R (5 mg/kg, IP, once daily), (iii) VNLG-152 (10 mg/kg, IP, once daily) and (iv) VNLG-152 (20 mg/kg, IP, once daily) 5 days/week for 29 days. Tumors were measured twice weekly with calipers and tumor volume was calculated by the formula: […] (mm^3). Animals were also weighed weekly and monitored for general health status and signs of possible toxicity due to treatments. Mice were sacrificed after the indicated periods of treatment and tumors and organs excised. Tumors were divided and either flash frozen in liquid nitrogen or placed in 10% buffered formalin for western blot analysis, immunohistochemistry (IHC), and hematoxylin and eosin (H & E) staining. It is important to state here that the control was part of a large study with our other retinamides whose data has already been reported.
Western blotting of tumor tissue lysates was performed according to standard protocol. Briefly, 30–50 μg protein per lysate was denatured with 2× sample buffer and resolved on 12 or 16% Tris–glycine gels by sodium dodecyl sulfate–polyacrylamide gel electrophoresis. Separated proteins were transferred onto nitrocellulose membrane by western blotting, and membrane was blocked for 1 h in blocking buffer and then incubated with specific primary antibodies (1:1000 dilution), followed by peroxidase-conjugated appropriate secondary antibody (1:3000 dilution). Finally, proteins were visualized by enhanced chemiluminescence detection and exposure to X-ray film. To confirm equal protein loading, membranes were stripped and re-probed with mouse monoclonal anti-β-actin primary antibody (Sigma).

Mnk1 = molecular target: T1, Mnk1 (Homo sapiens, UniProt Q9BUB5); assay: Surface plasmon resonance (OpenSPR) binding to immobilized GST-Mnk1; conditions: SPR, 1.25, 10 and 30 µM, 1:1 Langmuir model, 30 °C, scouting analysis; read-out: dissociation constant (KD)
T1 construct: incubated with recombinant full length Mnk1 proteins or cell lysates overnight at 4 °C; GST
Description: Purified recombinant Mnk1 protein with GST tag (2.5 µg/mL) was fixed on GST sensor chip (Nicoya) by capture-coupling, then VNLG-152R (1.25, 10 and 30 µM) were injected (flow rate of 20 µL/min) sequentially into the chamber in running buffer (PBS-T with 10% DMSO). The interaction of Mnk1 with VNLG-152R was detected by Open SPRTM (Nicoya Lifesciences, Kitchener, ON, Canada) at 30 °C. The chip was regenerated with regeneration solution (10 mM glycine-HCL) at a flow rate of 150 µL/min. The close curve fitting to the sensograms were calculated by global fitting curves (1:1 Langmuir binding model). The data was retrieved and analyzed with TraceDraw software (Kitchener, ON, Canada).

eIF4F complex = assay: m7GTP pull-down of eIF4F complex in TNBC cells; format: cell-based, human; conditions: 20 µM, 24 h, MDA-MB-231 and MDA-MB-468
Description: eIF4F complex in cell extracts was detected using affinity chromatography 7-methyl GTP (m7GTP)-Sepharose as described previously. Briefly, MDA-MB-231 treated with 20 μM VNLG-152 for 24 h were lysed in buffer containing 20 mM Tris-HCl (pH 7.4), 150 mM NaCl, 1 mM EDTA, 1 mM EGTA, 1 mM β-glycerophosphate, 1 mM Na3VO4, 1% Triton X-100, 2.5 mM sodium pyrophosphate, and protease inhibitor cocktail, on ice for 15 min. After centrifugation at 12,000× g for 15 min at 4 °C, the supernatants were collected and incubated with m7GTP-Sepharose (GE Healthcare Bio-Sciences Corp./Amersham, Piscataway, NJ, USA) at 4 °C for 2 h with constant shaking. Beads were washed three times with lysis buffer and three times with 1× Phosphate Buffered Salin, (PBS). The samples were then denatured, and the supernatants were then loaded to SDS-PAGE for immunoblotting.

T1 sequence (Q9BUB5 whole entry): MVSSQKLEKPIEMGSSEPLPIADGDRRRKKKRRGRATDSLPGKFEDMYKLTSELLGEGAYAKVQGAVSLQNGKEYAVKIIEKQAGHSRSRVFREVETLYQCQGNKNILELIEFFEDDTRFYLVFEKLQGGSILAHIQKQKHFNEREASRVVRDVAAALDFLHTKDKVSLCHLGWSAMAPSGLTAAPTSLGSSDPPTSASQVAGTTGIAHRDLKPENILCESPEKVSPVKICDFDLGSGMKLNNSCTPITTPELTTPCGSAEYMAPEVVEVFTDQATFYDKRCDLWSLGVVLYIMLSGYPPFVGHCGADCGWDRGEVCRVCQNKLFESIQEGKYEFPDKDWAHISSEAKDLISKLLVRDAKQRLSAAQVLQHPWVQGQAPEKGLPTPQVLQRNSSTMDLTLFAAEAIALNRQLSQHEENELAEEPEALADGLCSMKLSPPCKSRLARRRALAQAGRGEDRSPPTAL

CC1=C(/C=C/C(C)=C/C=C/C(C)=C/C(=O)Nc2ccc(F)cc2)C(C)(C)CCC1n1ccnc1 (racemic) [VNLG-152R, 4-(±)-(1H-imidazol-1-yl)-N-(4-fluorophenyl)-(E)-retinamide]
changes in body weights (Br-001 xenograft tumors): No changes in body weights were observed | TGI (Br-001 xenograft tumors; 5 days per week, 15 days): 82% | tumor growth inhibition (TGI) ([1]; 5 mg/kg/day IP): 91% | tumor growth inhibition (TGI) ([1]; 10 mg/kg/day IP): 97% | increase in the Bax/Bcl-2 ratio vs control ([1]; 20 mg/kg IP, tumor lysates): 470 fold | tumor growth inhibition (TGI) ([1]; 20 mg/kg/day IP): 97% | changes in body weights ([1]; 5, 10, 20 mg/kg IP): no significant changes in body weights were observed | gross organ (liver, lung and kidney) abnormalities ([1]; 5, 10, 20 mg/kg IP, H&E staining): no gross organ (liver, lung and kidney) abnormalities | expression of Mnk1, Mnk2, p-eIF4E, cyclin D1, Bcl-2, Bax and Bad in tumors ([1]; 10 or 20 mg/kg IP, western blot): significant dose-dependent suppressions of Mnk1, Mnk2, p-eIF4E, cyclin D1, Bcl-2, and up-regulation of Bax and Bad | Kd (Mnk1): 6.46 µM | eIF4G and 4E-BP1 association with eIF4E (eIF4F complex): decreased eIF4G and increased eukaryotic translation initiation factor 4E-binding protein 1 (4E-BP1) association with eIF4E
